Reference: ChEMBL document CHEMBL1201862, “PubChem BioAssay data set” (2004)
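Dose response: 5 concentrations. Exposure: 48 h. Format: 96-well plates. Endpoint: linear interpolation; highest concentration if not reached. GI50 = concentration required for 50% inhibition of growth.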 Calls of active or inactive are those of the source. Rule as the data show it: active = GI50 up to about 1.1 µM and inactive = higher.

What was measured:
Assay in all cases: NCI-60 cell line screen, 48 h
DLD-1 = test system: DLD-1
DMS-114 = test system: DMS-114
HOP-18 = test system: HOP-18
KM-20L2 = test system: KM-20L2
LXFL 529 = test system: LXFL 529
M19-MEL = test system: M19-MEL
RXF 631 = test system: RXF 631
SNB-78 = test system: SNB-78
XF498 = test system: XF498

Measured: GI50

Nc1nc2c(ncn2C2OC(CO)C(O)C2O)c(=O)o1 (stereo not drawn)
inactive: DLD-1 > 89.1 µM | DMS-114 67.3 µM | HOP-18 > 100 µM | KM-20L2 > 55 µM | LXFL 529 > 100 µM | M19-MEL > 100 µM | RXF 631 > 100 µM | SNB-78 > 100 µM | XF498 > 100 µM

O=P(O)(OCC(O)O)OCC(O)O
inactive: DLD-1 > 100 µM | DMS-114 > 100 µM | HOP-18 41.4 µM | KM-20L2 > 100 µM | LXFL 529 > 100 µM | M19-MEL > 100 µM | RXF 631 > 100 µM | SNB-78 > 100 µM | XF498 > 100 µM
